Measured values reported in the Kinase Knowledgebase extract (Sharma et al. 2016).

Legend:
[1] = biological target: CDK2 (human) (UniProt P24941); experiment: Cell-Based Assay
[2] = biological target: EGFR (UniProt P00533)
[3] = biological target: CDK2 (human) (UniProt P24941); settings: A431
[4] = biological target: CDK2 (UniProt P24941); experiment: Enzyme Assay

Sequence of EGFR (P00533 whole entry, looked up): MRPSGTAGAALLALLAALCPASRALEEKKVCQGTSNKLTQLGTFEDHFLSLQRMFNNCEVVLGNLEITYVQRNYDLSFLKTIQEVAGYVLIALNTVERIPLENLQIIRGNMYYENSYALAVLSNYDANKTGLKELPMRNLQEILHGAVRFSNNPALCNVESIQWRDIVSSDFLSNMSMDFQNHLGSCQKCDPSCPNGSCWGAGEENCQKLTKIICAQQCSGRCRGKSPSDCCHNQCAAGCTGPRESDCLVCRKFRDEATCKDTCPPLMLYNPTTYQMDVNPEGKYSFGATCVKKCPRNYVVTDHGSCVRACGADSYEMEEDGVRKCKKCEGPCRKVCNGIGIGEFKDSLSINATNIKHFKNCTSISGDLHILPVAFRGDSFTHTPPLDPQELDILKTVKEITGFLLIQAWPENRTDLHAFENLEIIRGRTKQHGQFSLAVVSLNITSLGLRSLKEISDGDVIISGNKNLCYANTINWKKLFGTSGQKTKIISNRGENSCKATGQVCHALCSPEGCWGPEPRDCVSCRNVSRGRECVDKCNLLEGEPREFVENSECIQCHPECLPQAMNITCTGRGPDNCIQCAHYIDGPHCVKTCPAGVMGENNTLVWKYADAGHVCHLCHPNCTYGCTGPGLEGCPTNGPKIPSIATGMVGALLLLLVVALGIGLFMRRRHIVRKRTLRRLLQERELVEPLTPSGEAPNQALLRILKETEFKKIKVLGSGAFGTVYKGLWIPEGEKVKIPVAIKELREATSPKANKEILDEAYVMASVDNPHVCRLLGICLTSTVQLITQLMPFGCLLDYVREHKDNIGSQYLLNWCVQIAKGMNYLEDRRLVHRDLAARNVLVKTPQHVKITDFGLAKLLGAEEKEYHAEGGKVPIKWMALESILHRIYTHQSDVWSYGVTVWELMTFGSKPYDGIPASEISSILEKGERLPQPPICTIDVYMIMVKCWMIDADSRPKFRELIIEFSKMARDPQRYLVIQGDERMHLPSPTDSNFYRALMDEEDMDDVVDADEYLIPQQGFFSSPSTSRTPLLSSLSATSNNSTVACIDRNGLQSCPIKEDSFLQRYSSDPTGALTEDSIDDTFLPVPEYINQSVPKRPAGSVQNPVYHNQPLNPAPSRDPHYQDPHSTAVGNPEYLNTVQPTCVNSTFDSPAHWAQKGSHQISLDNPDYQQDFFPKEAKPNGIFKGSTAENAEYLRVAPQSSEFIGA

SMILES: COc1cccc(Nc2nc(N(CCO)CCO)nc3c2cnn3C(C)C)c1
- GI50 ([1]; hct-116): 12.6 µM
- GI50 ([1]; snu638): 7.92 µM
- IC50 [2]: > 100 µM
- GI50 [3]: 4.43 µM
- IC50 [4]: 66 µM

SMILES: CC(C)n1ncc2c(NCc3ccc([N+](=O)[O-])cc3)nc(NCCO)nc21
- GI50 ([1]; hct-116): 77.7 µM
- GI50 ([1]; snu638): 23.4 µM
- IC50 [2]: > 100 µM
- GI50 [3]: 32 µM
- IC50 [4]: 46.8 µM

SMILES: OCCNc1nc(NCc2ccccc2)c2cn[nH]c2n1
- GI50 ([1]; hct-116): 4.5 µM
- GI50 ([1]; snu638): 20.8 µM
- IC50 [2]: 93.3 µM
- GI50 [3]: 26.6 µM
- IC50 [4]: 29.5 µM

SMILES: COc1cccc2c1C(=O)c1c(O)c3c(c(O)c1C2=O)C[C@@](O)(C(=O)CO)CC3O[C@H]1C[C@H](N)[C@H](O)[C@H](C)O1 (some centres not stated)
- GI50 ([1]; hct-116): 0.13 µM
- GI50 [3]: 0.18 µM

SMILES: OCCNc1nc(Nc2cccc(F)c2)c2cn[nH]c2n1
- GI50 ([1]; hct-116): > 100 µM
- GI50 ([1]; snu638): > 100 µM
- IC50 [2]: 66.1 µM
- GI50 [3]: 28.9 µM
- IC50 [4]: 0.5 µM

SMILES: OCCN(CCO)c1nc(Nc2cccc(F)c2)c2cn[nH]c2n1
- GI50 ([1]; hct-116): > 100 µM
- GI50 ([1]; snu638): > 100 µM
- IC50 [2]: > 100 µM
- GI50 [3]: 54.3 µM
- IC50 [4]: 0.9 µM

SMILES: OCCNc1nc(Nc2cccc(Br)c2)c2cn[nH]c2n1
- GI50 ([1]; hct-116): > 100 µM
- GI50 ([1]; snu638): 69.2 µM
- IC50 [2]: > 100 µM
- GI50 [3]: > 100 µM
- IC50 [4]: 8.1 µM

SMILES: Cn1ncc2c(Nc3cccc(F)c3)nc(N(CCO)CCO)nc21
- GI50 ([1]; hct-116): 8.89 µM
- GI50 ([1]; snu638): 2.56 µM
- IC50 [2]: 29.5 µM
- GI50 [3]: 3.94 µM
- IC50 [4]: 36.3 µM

SMILES: COc1cccc(Nc2nc(NCCO)nc3c2cnn3C)c1
- GI50 ([1]; hct-116): 90.4 µM
- GI50 ([1]; snu638): 21.7 µM
- IC50 [2]: > 100 µM
- GI50 [3]: 19.1 µM
- IC50 [4]: > 100 µM

SMILES: CC(C)n1ncc2c(NCc3ccccc3)nc(N(CCO)CCO)nc21
- GI50 ([1]; hct-116): 47.7 µM
- GI50 ([1]; snu638): 26.1 µM
- IC50 [2]: > 100 µM
- GI50 [3]: 21.9 µM
- IC50 [4]: > 100 µM

SMILES: OCCN(CCO)c1nc(Nc2cccc(Br)c2)c2cn[nH]c2n1
- GI50 ([1]; hct-116): > 100 µM
- GI50 ([1]; snu638): 38.9 µM
- IC50 [2]: 36.3 µM
- GI50 [3]: > 100 µM
- IC50 [4]: 3.8 µM

SMILES: Cn1ncc2c(NCc3ccc(N)cc3)nc(NCCO)nc21
- GI50 ([1]; hct-116): > 100 µM
- GI50 ([1]; snu638): 96.8 µM
- IC50 [2]: > 100 µM
- GI50 [3]: 58.9 µM
- IC50 [4]: > 100 µM

SMILES: Cn1ncc2c(Nc3cccc(F)c3)nc(NCCO)nc21
- GI50 ([1]; hct-116): 28.2 µM
- GI50 ([1]; snu638): 15.8 µM
- IC50 [2]: > 100 µM
- GI50 [3]: 16.3 µM
- IC50 [4]: 21.4 µM

SMILES: CC(C)n1ncc2c(Nc3cccc(F)c3)nc(NCCO)nc21
- GI50 ([1]; hct-116): 19.3 µM
- GI50 ([1]; snu638): 7.57 µM
- IC50 [2]: > 100 µM
- GI50 [3]: 7.8 µM
- IC50 [4]: 49 µM

SMILES: COc1cccc(Nc2nc(NCCO)nc3[nH]ncc23)c1
- GI50 ([1]; hct-116): 38.2 µM
- GI50 ([1]; snu638): 17.1 µM
- IC50 [2]: > 100 µM
- GI50 [3]: > 100 µM
- IC50 [4]: 3.1 µM

SMILES: Cn1ncc2c(NCc3ccccc3)nc(NCCO)nc21
- GI50 ([1]; hct-116): > 100 µM
- GI50 ([1]; snu638): 37.1 µM
- IC50 [2]: > 100 µM
- GI50 [3]: 42.7 µM
- IC50 [4]: > 100 µM

SMILES: CC(C)n1ncc2c(Nc3cccc(Br)c3)nc(NCCO)nc21
- GI50 ([1]; hct-116): 6.46 µM
- GI50 ([1]; snu638): 4.28 µM
- IC50 [2]: > 100 µM
- GI50 [3]: 2.19 µM
- IC50 [4]: 28.2 µM

SMILES: Cn1ncc2c(NCc3ccccc3)nc(N(CCO)CCO)nc21
- GI50 ([1]; hct-116): 53.4 µM
- GI50 ([1]; snu638): 25.3 µM
- IC50 [2]: 77.6 µM
- GI50 [3]: 24.3 µM
- IC50 [4]: > 100 µM

SMILES: COc1cccc(Nc2nc(N(CCO)CCO)nc3c2cnn3C)c1
- GI50 ([1]; hct-116): 17.2 µM
- GI50 ([1]; snu638): 10.5 µM
- IC50 [2]: > 100 µM
- GI50 [3]: 12.9 µM
- IC50 [4]: 57.5 µM

SMILES: COc1cccc(Nc2nc(N(CCO)CCO)nc3[nH]ncc23)c1
- GI50 ([1]; hct-116): > 100 µM
- GI50 ([1]; snu638): > 100 µM
- IC50 [2]: > 100 µM
- GI50 [3]: > 100 µM
- IC50 [4]: 10.2 µM

SMILES: CC(C)n1ncc2c(NCc3ccccc3)nc(NCCO)nc21
- GI50 ([1]; hct-116): 57.6 µM
- GI50 ([1]; snu638): 25.2 µM
- IC50 [2]: > 100 µM
- GI50 [3]: 35.6 µM
- IC50 [4]: > 100 µM

SMILES: Cn1ncc2c(Nc3cccc(Br)c3)nc(NCCO)nc21
- GI50 ([1]; hct-116): > 100 µM
- GI50 ([1]; snu638): 18.2 µM
- IC50 [2]: 47.9 µM
- GI50 [3]: 31.9 µM
- IC50 [4]: > 100 µM

SMILES: COc1cccc(Nc2nc(NCCO)nc3c2cnn3C(C)C)c1
- GI50 ([1]; hct-116): 21.4 µM
- GI50 ([1]; snu638): 7.55 µM
- IC50 [2]: > 100 µM
- GI50 [3]: 13.1 µM
- IC50 [4]: > 100 µM

SMILES: Cn1ncc2c(Nc3cccc(Br)c3)nc(N(CCO)CCO)nc21
- GI50 ([1]; hct-116): 16.6 µM
- GI50 ([1]; snu638): 6.2 µM
- IC50 [2]: > 100 µM
- GI50 [3]: 2.94 µM
- IC50 [4]: > 100 µM

SMILES: CC(C)n1ncc2c(NCc3ccc(N)cc3)nc(NCCO)nc21
- GI50 ([1]; hct-116): > 100 µM
- GI50 ([1]; snu638): 38.2 µM
- IC50 [2]: > 100 µM
- GI50 [3]: 55.3 µM
- IC50 [4]: > 100 µM

SMILES: Cn1ncc2c(NCc3ccc([N+](=O)[O-])cc3)nc(NCCO)nc21
- GI50 ([1]; hct-116): 48.5 µM
- GI50 ([1]; snu638): 24.9 µM
- IC50 [2]: > 100 µM
- GI50 [3]: 23.4 µM
- IC50 [4]: 17.8 µM

SMILES: CC(C)n1ncc2c(Nc3cccc(Br)c3)nc(N(CCO)CCO)nc21
- GI50 ([1]; hct-116): 5.06 µM
- GI50 ([1]; snu638): 4.1 µM
- IC50 [2]: > 100 µM
- GI50 [3]: 2.58 µM
- IC50 [4]: 29.5 µM

SMILES: OCCN(CCO)c1nc(NCc2ccccc2)c2cn[nH]c2n1
- GI50 ([1]; hct-116): 93.6 µM
- GI50 ([1]; snu638): 29 µM
- IC50 [2]: 55 µM
- GI50 [3]: > 100 µM
- IC50 [4]: 37.2 µM

SMILES: CC(C)n1ncc2c(Nc3cccc(F)c3)nc(N(CCO)CCO)nc21
- GI50 ([1]; hct-116): 10.9 µM
- GI50 ([1]; snu638): 7.95 µM
- IC50 [2]: > 100 µM
- GI50 [3]: 6.25 µM
- IC50 [4]: 47.9 µM
